According to ChEMBL document CHEMBL5104182, “Design and Synthesis of a 2-Amino-pyridine Derivative as a Potent CDK8 Inhibitor for Anti-colorectal Cancer Therapy” (J Med Chem, 2022):
Active and inactive are the calls of the source. The rule behind the calls is not given here.

Assays:
[1] = test system: HCT-116; experiment: Induction of cell cycle arrest in human HCT-116 cells assessed as decrease in p-Rb S780 level incubated for 24 hrs by Western blot analysis; type: functional, cell-based
[2] = test system: CT26; experiment: In vivo inhibition of CDK8 in mouse CT26 cells transplanted in […] mouse assessed as downregulation of c-Myc in tumor at 10 to 40 mg/kg, po daily measured after 21 days; type: functional, organism-based; details: dose 10-40 mg/kg, time 21.0 day
[3] = test system: HCT-116; experiment: Decrease in Dvl2 expression in human HCT-116 cells at 1 to 4 uM incubated for 12 hrs by western blotting analysis; type: functional, cell-based; details: dose 1-4 µM
[4] = AUC (0 to infinitive) in Sprague-Dawley rat at 10 mg/kg, po upto 24 hrs by HPLC analysis; type: ADME, organism-based; set-up: dose 10 mg/kg, time < 24 hrs, route po; details: in vivo
[5] = Toxicity in ICR mouse assessed as liver damage at 1000 mg/kg, using gastric tube by H&E staining assay; type: organism-based; details: in vivo, po, route ig
[6] = test system: CT26; experiment: Anticancer activity against mouse CT26 cells transplanted in […] mouse assessed as reduction in tumor volume at 10 to 40 mg/kg, po daily measured after 21 days; type: functional, organism-based; details: dose 10-40 mg/kg, time 21.0 day
[7] = test system: HCT-116; experiment: Induction of cell cycle arrest in human HCT-116 cells assessed as increase in cells at G2/M phase measured after 48 hrs by flow cytometry; type: functional, cell-based
[8] = test system: CT26; experiment: In vivo inhibition of CDK8 in mouse CT26 cells transplanted in […] mouse assessed as upregulation of E2F1 in tumor at 10 to 40 mg/kg, po daily measured after 21 days; type: functional, organism-based; details: dose 10-40 mg/kg, time 21.0 day
[9] = test system: HCT-116; experiment: Decrease in LRP6 expression in human HCT-116 cells at 1 to 4 uM incubated for 12 hrs by western blotting analysis; type: functional, cell-based; details: dose 1-4 µM
[10] = Toxicity in Balb/c mouse assessed as ALT level in serum at 1000 mg/kg, using gastric tube; type: organism-based; details: in vivo, po, route ig
[11] = test system: HCT-116; experiment: Reduction in P-gp expression in sorafenib-resistant human HCT-116 cells by Western blot analysis; type: functional, cell-based; details: dose 1-4 µM, DDE = dose-dependent effect
[12] = test system: HCT-116; experiment: Decrease in beta-catenin/TCF combination expression in human HCT-116 cells transfected with TOPFLASH at 1 to 4 uM incubated for 24 hrs by luciferase assay; type: functional, cell-based; details: dose 1-4 µM

- AUC(0-inf) [4]: 665 ng·h/mL
SMILES: Nc1ccc(Oc2ccc(NC(=O)Nc3cccc(C(F)(F)F)c3)cc2)cn1
- Activity [1]: Active
- Activity [2]: Active
- Activity [3]: Active
- Activity [5]: Non-Toxic
- Activity [6]: Active
- Activity [7]: Active
- Activity [8]: Active
- Activity [9]: Active
- Activity [10]: Non-Toxic
- Activity [11]: Dde
- Activity [12]: Active
